According to patent publication US7253155B2, “Combinations for the treatment of immunoinflammatory disorders” (CombinatoRx, Inc., priority 2001, dated 2007):
Where “and” joins values, the source holds several entries; their conditions need not be identical. Equal values may be shown once.

Test system: TNFα secretion
Test: TNFα ELISA assay for TNFα suppressing activity in PMA/ionomycin-stimulated human white blood cells (pairwise combination dilution matrix)
Assay type: cell-based
Procedure: Stock solutions at 16 mg/ml of dipyridamole, and 1.6 mg/ml of fludrocortisone acetate (Sigma-Aldrich, St. Louis, Mo.; catalog numbers D9766 and F6127, respectively) were made in dimethylsulfoxide (DMSO). The dipyridamole master plates were made by adding 25 μl of the concentrated stock solution to columns 3, 9, and 15 (rows C through N) of a polypropylene 384-well storage plate that had been pre-filled with 75 μl of anhydrous DMSO. Using a TomTec Quadra Plus liquid handler, the 25 μl of dipyridamole stock solution was serially diluted four times into the adjacent columns (columns 4-7, 10-13, 16-19). […] The fludrocortisone master plates were made by adding 25 μl of the concentrated stock solution to the appropriate wells (row C, columns 3-8; row C, columns 9-14; row C, columns 15-20; row I, columns 3-8; row I, columns 9-14; row I, columns 15-20) of the appropriate master polypropylene 384-well storage plate. These master plates had been pre-filled with 75 μl of anhydrous DMSO. Using the TomTec Quadra Plus liquid handler, the 25 μl was serially diluted four times in the adjacent rows (rows D-G, and J-M). […] Master plates were sealed and stored at −20 C. until ready for use.
The final dipyridamole/fludrocortisone combination plates were generated by transferring 1 μl from each of the dipyridamole and fludrocortisone master plates to a dilution plate containing 100 μl of media (RPMI; Gibco BRL, #11875-085), 10% Fetal Bovine Serum (Gibco BRL, #25140-097), 2% Penicillin/Streptomycin (Gibco BRL, #15140-122)) using the TomTec Quadra Plus liquid handler. This dilution plate was then mixed and a 10 μl aliquot transferred to the final assay plate, which had been pre-filled with 40 μl/well RPMI media containing the appropriate stimulant to activate TNFα secretion (see below).
The compound dilution matrix was assayed using a TNFα ELISA method. Briefly, a 100 μl suspension of diluted human white blood cells contained within each well of a polystyrene 384-well plate (NalgeNunc) was stimulated to secrete TNFα by treatment with a final concentration of 10 ng/ml phorbol 12-myristate 13-acetate (Sigma) and […] ionomycin (Sigma). Various concentrations of each test compound were added at the time of stimulation. After 16-18 hours of incubation at 37° C. in a humidified incubator, the plate was centrifuged and the supernatant transferred to a white opaque polystyrene 384 well plate (NalgeNunc, Maxisorb) coated with an anti-TNF antibody (PharMingen, #18631D). After a two-hour incubation, the plate was washed (Tecan PowerWasher 384) with phosphate buffered saline (PBS) containing 0.1% Tween 20 (polyoxyethylene sorbitan monolaurate) and incubated for an additional one hour with another anti-TNF antibody that was biotin labeled (PharMingen, 18642D) and horseradish peroxidase (HRP) coupled to strepavidin (PharMingen, #13047E). After the plate was washed with 0.1% Tween 20/PBS, the HRP substrate (which contains luminol, hydrogen peroxide, and an enhancer such as para-iodophenol) was added to each well and light intensity measured using a LJL Analyst luminometer. Control wells contained a final concentration of 1 μg/ml cyclosporin A (Sigma).
A compound matrix of dipyridamole and prednisolone were prepared according to the method of Example 1. The initial stock solution of dipyridamole was 16 mg/ml, and prednisolone was 1.6 mg/ml.
The compound dilution matrix of Example 3, was assayed using the TNFα ELISA method of Example 2.

OCCN(CCO)c1nc(N2CCCCC2)c2nc(N(CCO)CCO)nc(N3CCCCC3)c2n1 [Dipyridamole, 2,6-bis(diethanolamino)-4,8-dipiperidinopyrimido(5,4-d)pyrimidine]
% TNFα suppression from P/I-induced white blood cells (primary screen, fludrocortisone 0.000 μM, dipyridamole 0.031 μM): 3.68% | % TNFα suppression from P/I-induced white blood cells (primary screen, fludrocortisone 0.000 μM, dipyridamole 0.124 μM): 9.08% | % TNFα suppression from P/I-induced white blood cells (primary screen, fludrocortisone 0.000 μM, dipyridamole 0.495 μM): 13.21% | % TNFα suppression from P/I-induced white blood cells (primary screen, fludrocortisone 0.000 μM, dipyridamole 1.982 μM): 35.24% | % TNFα suppression from P/I-induced white blood cells (primary screen, fludrocortisone 0.000 μM, dipyridamole 7.927 μM): 66.37% | % TNFα suppression from P/I-induced white blood cells (primary screen, prednisolone 0.000 μM, dipyridamole 0.031 μM): 11.24% | % TNFα suppression from P/I-induced white blood cells (primary screen, prednisolone 0.000 μM, dipyridamole 0.12 μM): 12.63% | % TNFα suppression from P/I-induced white blood cells (primary screen, prednisolone 0.000 μM, dipyridamole 0.50 μM): 18.30% | % TNFα suppression from P/I-induced white blood cells (primary screen, prednisolone 0.000 μM, dipyridamole 1.98 μM): 27.21% | % TNFα suppression from P/I-induced white blood cells (primary screen, prednisolone 0.000 μM, dipyridamole 7.93 μM): 47.51% | % TNFα suppression from P/I-induced white blood cells (secondary screen, fludrocortisone 0.000 μM, dipyridamole 0.031 μM): 10.16% | % TNFα suppression from P/I-induced white blood cells (secondary screen, fludrocortisone 0.000 μM, dipyridamole 0.062 μM): 9.43% | % TNFα suppression from P/I-induced white blood cells (secondary screen, fludrocortisone 0.000 μM, dipyridamole 0.124 μM): 12.13% | % TNFα suppression from P/I-induced white blood cells (secondary screen, fludrocortisone 0.000 μM, dipyridamole 0.248 μM): 23.02% | % TNFα suppression from P/I-induced white blood cells (secondary screen, fludrocortisone 0.000 μM, dipyridamole 0.495 μM): 33.73% | % TNFα suppression from P/I-induced white blood cells (secondary screen, fludrocortisone 0.000 μM, dipyridamole 0.991 μM): 48.20% | % TNFα suppression from P/I-induced white blood cells (secondary screen, fludrocortisone 0.000 μM, dipyridamole 1.982 μM): 62.36% | % TNFα suppression from P/I-induced white blood cells (secondary screen, fludrocortisone 0.000 μM, dipyridamole 3.964 μM): 66.54% | % TNFα suppression from P/I-induced white blood cells (secondary screen, fludrocortisone 0.000 μM, dipyridamole 7.927 μM): 78.11%

C[C@]12C=CC(=O)C=C1CC[C@@H]1[C@@H]2[C@@H](O)C[C@@]2(C)[C@H]1CC[C@]2(O)C(=O)CO [Prednisolone, 11beta,17alpha,21-trihydroxy-1,4-pregnadiene-3,20-dione]
% TNFα suppression from P/I-induced white blood cells (primary screen, prednisolone 0.001 μM, dipyridamole 0.00 μM): 4.86% | % TNFα suppression from P/I-induced white blood cells (primary screen, prednisolone 0.004 μM, dipyridamole 0.00 μM): 19.99% | % TNFα suppression from P/I-induced white blood cells (primary screen, prednisolone 0.016 μM, dipyridamole 0.00 μM): 37.84% | % TNFα suppression from P/I-induced white blood cells (primary screen, prednisolone 0.063 μM, dipyridamole 0.00 μM): 33.00% | % TNFα suppression from P/I-induced white blood cells (primary screen, prednisolone 0.250 μM, dipyridamole 0.00 μM): 38% and 38.25%
